The source of these data is US7612065B2, “Inhibitors of c-JUN N-terminal kinases (JNK)” (priority 2007, dated 2009).

For the test, the target named is T1, JNK3 (Homo sapiens, UniProt P53779).
T1 construct: One such construct encodes amino acid residues Ser40-Glu402 of JNK3α1 and is preceded by Met and Gly residues; Met-Gly (initiation methionine plus glycine added for the NcoI site); made in house; host or cells: E. coli BL21 (DE3)
The test is described as follows: JNK inhibition assay: spectrophotometric coupled-enzyme assay with activated JNK3. As to conditions: activated JNK3 10 nM, 10 μM ATP, 200 μM EGF receptor peptide, 30° C., competitive inhibition model. It counts as biochemical. The gist of the method: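 Activated (doubly phosphorylated, MKK7(DD)-activated) human JNK3, 10 nM, preincubated 10 min at 30 °C with inhibitor in 0.1 M HEPES pH 7.5, 10 mM MgCl2, 200 μM EGF receptor peptide, PK/LDH-coupled. Started with 10 μM ATP; A340 decrease followed at 30 °C. Ki from competitive inhibition model fit.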

T1 sequence (P53779 40-402): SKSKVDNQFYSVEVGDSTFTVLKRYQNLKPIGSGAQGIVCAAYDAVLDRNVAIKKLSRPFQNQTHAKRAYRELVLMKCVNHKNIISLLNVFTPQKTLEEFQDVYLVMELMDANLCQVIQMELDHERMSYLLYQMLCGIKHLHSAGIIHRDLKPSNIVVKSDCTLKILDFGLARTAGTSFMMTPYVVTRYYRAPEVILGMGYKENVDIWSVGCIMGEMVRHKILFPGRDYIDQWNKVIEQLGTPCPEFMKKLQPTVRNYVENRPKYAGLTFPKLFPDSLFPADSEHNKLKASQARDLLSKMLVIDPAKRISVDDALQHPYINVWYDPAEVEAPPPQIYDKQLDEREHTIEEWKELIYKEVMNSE

Take `Nc1cccc(-c2ccc3c(c2)N(Cc2cc(F)cc4c2OCOC4)C(=O)/C3=N\O)c1` [Compound 327]: the inhibitory constant (Ki) was less than 1 µM.
For `O=C(c1ccc(F)cc1)c1ccc2c(c1)/C(=N/O)C(=O)N2Cc1cc(F)cc2c1OCOC2` [Compound 328] the value was not below 1 µM.
For `COc1ccc(-c2ccc3c(c2)N(Cc2cc(F)cc4c2OCOC4)C(=O)/C3=N\O)cc1` [Compound 329] the value was not below 1 µM.
`CC(=O)c1ccc(-c2ccc3c(c2)N(Cc2cc(F)cc4c2OCOC4)C(=O)/C3=N\O)cc1` [Compound 330]: the inhibitory constant (Ki) is less than 1 µM.
For `Cc1ccc(-c2ccc3c(c2)N(Cc2cc(F)cc4c2OCOC4)C(=O)/C3=N\O)cc1C` [Compound 331] the value was less than 1 µM; for `COc1ccc(-c2ccc3c(c2)N(Cc2cc(F)cc4c2OCOC4)C(=O)/C3=N\O)cc1OC` [Compound 332], less than 1 µM; for `Cc1ccc(-c2ccc3c(c2)N(Cc2cc(F)cc4c2OCOC4)C(=O)/C3=N\O)cc1` [Compound 333], not below 1 µM.
With `CC(C)c1ccc(-c2ccc3c(c2)N(Cc2cc(F)cc4c2OCOC4)C(=O)/C3=N\O)cc1` [Compound 334], the Ki is not below 1 µM.
With `O=C(O)CCc1ccc(-c2ccc3c(c2)N(Cc2cc(F)cc4c2OCOC4)C(=O)/C3=N\O)cc1` [Compound 335], the Ki was less than 1 µM.
For `CC(C)=Cc1cccc2c1/C(=N/O)C(=O)N2Cc1cc(F)cc2c1OCOC2` [Compound 336] the value was less than 1 µM; for `CCCCc1cccc2c1/C(=N/O)C(=O)N2Cc1cc(F)cc2c1OCOC2` [Compound 337], less than 1 µM.
`COc1ccc(C(=O)Nc2ccc3c(c2)N(Cc2cc(F)cc4c2OCOC4)C(=O)/C3=N\O)cc1` [Compound 338]: the inhibitory constant (Ki) is not below 1 µM.
For `COc1ccc(C(=O)Nc2ccc3c(c2)N(Cc2cc(F)cc4c2OCOC4)C(=O)/C3=N\O)cc1OC` [Compound 339] the value was not below 1 µM; for `COc1cccc(OC)c1C(=O)Nc1ccc2c(c1)N(Cc1cc(F)cc3c1OCOC3)C(=O)/C2=N\O` [Compound 340], not below 1 µM; for `O=C(Nc1ccc2c(c1)N(Cc1cc(F)cc3c1OCOC3)C(=O)/C2=N\O)c1ccccc1F` [Compound 341], less than 1 µM.
`O=C(Nc1ccc2c(c1)N(Cc1cc(F)cc3c1OCOC3)C(=O)/C2=N\O)c1ccccc1Cl` [Compound 342]: the inhibition constant Ki was less than 1 µM.
For `O=C(Nc1ccc2c(c1)N(Cc1cc(F)cc3c1OCOC3)C(=O)/C2=N\O)c1ccccc1Br` [Compound 343] the value was less than 1 µM.
Turning to `CCC(=O)Nc1ccc2c(c1)N(Cc1cc(F)cc3c1OCOC3)C(=O)/C2=N\O` [Compound 344], the inhibitory constant (Ki) is less than 1 µM.
For `CC(C)CC(=O)Nc1ccc2c(c1)N(Cc1cc(F)cc3c1OCOC3)C(=O)/C2=N\O` [Compound 345], the Ki is less than 1 µM.
`O=C(Nc1ccc2c(c1)N(Cc1cc(F)cc3c1OCOC3)C(=O)/C2=N\O)C1CCCCC1` [Compound 346]: the Ki is not below 1 µM.
For `CC(=O)NCC(=O)NCC(=O)Nc1ccc2c(c1)N(Cc1cc(F)cc3c1OCOC3)C(=O)/C2=N\O` [Compound 347] the value was not below 1 µM; for `CC(=O)NCC(=O)Nc1ccc2c(c1)N(Cc1cc(F)cc3c1OCOC3)C(=O)/C2=N\O` [Compound 348], not below 1 µM.
For `Cc1ccc(C(=O)c2ccc3c(c2)/C(=N/O)C(=O)N3Cc2cc(F)cc3c2OCOC3)cc1` [Compound 349] the value was not below 1 µM; for `Cc1cc2c(cc1C(=O)c1ccccc1)/C(=N/O)C(=O)N2Cc1cc(F)cc2c1OCOC2` [Compound 351], not below 1 µM; for `C[C@H](NC(=O)OCC1c2ccccc2-c2ccccc21)C(=O)Nc1ccc2c(c1)N(Cc1cc(F)cc3c1OCOC3)C(=O)/C2=N\O` [Compound 352], not below 1 µM.
For `O=C(c1ccc2c(c1)/C(=N\O)C(=O)N2Cc1cc(F)cc2c1OCOC2)c1cccc(Cl)c1Cl` [Compound 355] the value was less than 1 µM.
For the molecule `O=C(c1ccc2c(c1)/C(=N\O)C(=O)N2Cc1cc(F)cc2c1OCOC2)c1ccccc1Cl` [Compound 356], the Ki was less than 1 µM.
